In the NIST ThermoML archive (doi:10.1021/je400395u):

Test: mn = molality of the nth substance listed, in mol/kg
Conditions: 100 kPa, Liquid; for viscosity: Capillary tube (Ostwald / Ubbelohde) method; for mass density: Vibrating tube method

OC[C@@H](O)[C@@H](O)CO [meso-1,2,3,4-butanetetrol] + O
Conditions | mass density, m1 = 0.2002 [kg/m3] | mass density, m1 = 0.4001 [kg/m3] | mass density, m1 = 0.6001 [kg/m3] | mass density, m1 = 0.7984 [kg/m3] | mass density, m1 = 0.9998 [kg/m3] | viscosity, m1 = 0.2002 [mPa·s] | viscosity, m1 = 0.4001 [mPa·s] | viscosity, m1 = 0.6001 [mPa·s] | viscosity, m1 = 0.7984 [mPa·s] | viscosity, m1 = 0.9998 [mPa·s]
293.15 K | 1005.26 | 1012.03 | 1018.54 | 1024.74 | 1030.79 | 1.069 | 1.134 | 1.204 | 1.278 | 1.358
303.15 K | 1002.58 | 1009.24 | 1015.65 | 1021.76 | 1027.73 | 0.849 | 0.895 | 0.947 | 1.001 | 1.058
313.15 K | 999.05 | 1005.61 | 1011.9 | 1017.92 | 1023.81 | 0.69 | 0.727 | 0.766 | 0.806 | 0.849
323.15 K | 994.8 | 1001.29 | 1007.55 | 1013.53 | 1019.39 | 0.576 | 0.604 | 0.634 | 0.665 | 0.698

OC[C@@H](O)[C@H](O)[C@@H](O)CO [xylitol] + O
Conditions | mass density, m1 = 0.2002 [kg/m3] | mass density, m1 = 0.4 [kg/m3] | mass density, m1 = 0.5996 [kg/m3] | mass density, m1 = 0.7997 [kg/m3] | mass density, m1 = 1 [kg/m3] | viscosity, m1 = 0.2002 [mPa·s] | viscosity, m1 = 0.4 [mPa·s] | viscosity, m1 = 0.5996 [mPa·s] | viscosity, m1 = 0.7997 [mPa·s] | viscosity, m1 = 1 [mPa·s]
293.15 K | 1008.14 | 1017.61 | 1026.67 | 1035.36 | 1043.71 | 1.081 | 1.168 | 1.249 | 1.343 | 1.449
303.15 K | 1005.4 | 1014.72 | 1023.62 | 1032.15 | 1040.36 | 0.858 | 0.917 | 0.981 | 1.056 | 1.125
313.15 K | 1001.83 | 1010.99 | 1019.76 | 1028.15 | 1036.24 | 0.699 | 0.743 | 0.792 | 0.845 | 0.901
323.15 K | 997.51 | 1006.53 | 1015.16 | 1023.43 | 1031.37 | 0.582 | 0.617 | 0.655 | 0.695 | 0.739
